Test results from article PMC10178204, “Peptaibol Analogs Show Potent Antibacterial Activity against Multidrug Resistant Opportunistic Pathogens” (International Journal of Molecular Sciences, 2023).
Values after ≈ are worked out from the molar mass of the structure shown. Values joined by “and” are separate entries in the source; they are usually repeats but may differ in a detail not shown here. Identical values can stand only once. Non-standard residues stand in square brackets, D forms with d. Residues, ends and D or L forms follow the SMILES beside them. *: point of attachment. Leu(ol) = CC(C)C[C@H](N)CO; Octanoyl = CCCCCCCC(=O)*; Aib = CC(C)(N)C(=O)O

Experiments:
[1] = test system: Acinetobacter baumannii ATCC 17978
Outline: (§1)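 Broth microdilution in Mueller–Hinton broth, run in triplicate, inoculum 5 × 10^5 CFU/mL per CLSI M07-A10; MIC and MBC both determined. Peptides dissolved in DMSO at 25 mg/mL as stock.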

[2] = test system: Bacillus subtilis ATCC 6633; conditions: MHB, 5 × 10^5 CFU/mL, 18 h, 35 °C, triplicate
Outline: as §1

[3] = test system: Enterococcus faecalis ATCC 29212; conditions: MHB, 5 × 10^5 CFU/mL, 18 h, 35 °C, triplicate
Outline: as §1

Escherichia coli CCUGT = conditions: MHB, 5 × 10^5 CFU/mL, 18 h, 35 °C, triplicate
Outline: as §1

[4] = test system: Klebsiella pneumoniae ATCC 13833; conditions: MHB, 5 × 10^5 CFU/mL, 18 h, 35 °C, triplicate
Outline: as §1

[5] = test system: Pseudomonas aeruginosa ATCC 27853; conditions: MHB, 5 × 10^5 CFU/mL, 18 h, 35 °C, triplicate
Outline: as §1

[6] = test system: Staphylococcus aureus ATCC 25923; conditions: MHB, 5 × 10^5 CFU/mL, 18 h, 35 °C, triplicate
Outline: as §1

[7] = test system: Streptococcus pyogenes ATCC 12344; conditions: MHB, 5 × 10^5 CFU/mL, 18 h, 35 °C, triplicate
Outline: as §1

[8] = test system: reference Gram-positive and Gram-negative strains
Outline: as §1

[9] = test system: A. baumannii SI-12 (OXA-23); conditions: MHB, 5 × 10^5 CFU/mL, 18 h, 35 °C, triplicate
Outline: (§2)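 Peptides came from DMSO stocks of 25 mg/mL. Strains were clinical MDR isolates producing metallo-β-lactamase (P. aeruginosa) or class D carbapenemase (A. baumannii).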

[10] = test system: A. baumannii SI-310 (OXA-24); conditions: colistin-resistant isolate; MHB, 5 × 10^5 CFU/mL, 18 h, 35 °C, triplicate
Outline: as §2

[11] = test system: A. baumannii SI-648 (OXA-23, OXA-51-like); conditions: MHB, 5 × 10^5 CFU/mL, 18 h, 35 °C, triplicate
Outline: as §2

[12] = test system: P. aeruginosa 101/1477 (IMP-1); conditions: MHB, 5 × 10^5 CFU/mL, 18 h, 35 °C, triplicate
Outline: as §2

[13] = test system: P. aeruginosa 506/99 (VIM-2); conditions: MHB, 5 × 10^5 CFU/mL, 18 h, 35 °C, triplicate
Outline: as §2

[14] = test system: P. aeruginosa VA-182/00 (VIM-2); conditions: MHB, 5 × 10^5 CFU/mL, 18 h, 35 °C, triplicate
Outline: as §2

[15] = test system: P. aeruginosa VR-143/97 (VIM-1); conditions: MHB, 5 × 10^5 CFU/mL, 18 h, 35 °C, triplicate
Outline: as §2

[16] = test system: S. aureus ATCC 43300 (MRSA); conditions: MHB, 5 × 10^5 CFU/mL, 18 h, 35 °C, triplicate
[17] = test system: blood agar plate (Columbia CNA Agar); test: Hemolysis on blood agar plate; conditions: 50 μg spotted on blood agar, 35 ± 2 °C, 24 h
Outline: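 Peptides (50 μg, from 25 mg/mL DMSO solution) spotted on Columbia CNA blood agar, incubated at 35 ± 2 °C for 24 h. Hemolysis zone diameter measured visually, averaged over triplicates. Triton X-100 positive, DMSO negative control.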

[18] = MHB, 5 × 10^5 CFU/mL, 18 h, 35 °C, triplicate

`CCCCCCCC(=O)NC(C)(C)C(=O)N[C@@H](CCCCN)C(=O)N[C@@H](CC(C)C)C(=O)NC(C)(C)C(=O)N[C@@H](CCCCN)C(=O)N[C@@H](CCCCN)C(=O)N[C@@H](CC(C)C)C(=O)NC(C)(C)C(=O)N[C@@H](CCCCN)C(=O)N[C@H](C(=O)N[C@H](CO)CC(C)C)[C@@H](C)CC` [Peptide 7, 1-Oct-Aib-Lys-Leu-Aib-Lys-Lys-Leu-Aib-Lys-Ile-Lol] (Octanoyl-[Aib]KL[Aib]KKL[Aib]KI[Leu(ol)]) was tested, and the “MBC Aba” value [1, 18] was 16 µg/mL (≈ 11.8 µM), the “MIC Aba” value [1, 18] was 2 µg/mL (≈ 1.48 µM) and the “MIC against A. baumannii, in molar units” value ([1]; corresponding to 2 and 8 μg/mL) was 1.8 to 7.2 µM. The “MBC Bsu” value [2] was 16 µg/mL (≈ 11.8 µM), the “MIC Bsu” value [2] was 2 µg/mL (≈ 1.48 µM) and the “MBC Efa” value [3] was 8 µg/mL (≈ 5.92 µM). For the same compound, the “MIC Efa” value [3] was 4 µg/mL (≈ 2.96 µM), the “MBC Eco” value (Escherichia coli CCUGT) was 16 µg/mL (≈ 11.8 µM) and the “MIC Eco” value (Escherichia coli CCUGT) was 16 µg/mL (≈ 11.8 µM). The “MBC Kpn” value [4] was 16 µg/mL (≈ 11.8 µM), the “MIC Kpn” value [4] was 16 µg/mL (≈ 11.8 µM) and the “MBC Pae” value [5] was over 16 µg/mL. The “MIC Pae” value [5] was 8 µg/mL (≈ 5.92 µM), the “MBC Sau” value [6] was 32 µg/mL (≈ 23.7 µM) and the “MIC Sau” value [6] was 16 µg/mL (≈ 11.8 µM). The “MBC Spy” value [7] was 8 µg/mL (≈ 5.92 µM), the “MIC Spy” value [7] was 2 µg/mL (≈ 1.48 µM) and the “lowest MIC” value ([8]; lowest value over the eight reference strains) was 2 µg/mL. For the same compound, the “MIC range, all tested bacterial strains” value ([8]; reference panel) was 2 to 16 µg/mL, the “MBC A. baumannii SI-12 (OXA-23)” value [9] was 4 µg/mL (≈ 2.96 µM) and the “MIC A. baumannii SI-12 (OXA-23)” value [9] was 2 µg/mL (≈ 1.48 µM). The “MBC A. baumannii SI-310 (OXA-24)” value [10] was 4 µg/mL (≈ 2.96 µM), the “MIC A. baumannii SI-310 (OXA-24)” value [10] was 4 μg/mL and 4/4 μg/mL and the “MBC A. baumannii SI-648 (OXA-23, OXA-51-like)” value [11] was 4 µg/mL (≈ 2.96 µM). The “MIC A. baumannii SI-648 (OXA-23, OXA-51-like)” value [11] was 2 µg/mL (≈ 1.48 µM), the “MBC P. aeruginosa 101/1477 (IMP-1)” value [12] was 8 µg/mL (≈ 5.92 µM) and the “MIC P. aeruginosa 101/1477 (IMP-1)” value [12] was 8 µg/mL (≈ 5.92 µM). For the same compound, the “MBC P. aeruginosa 506/99 (VIM-2)” value [13] was 8 µg/mL (≈ 5.92 µM), the “MIC P. aeruginosa 506/99 (VIM-2)” value [13] was 8 µg/mL (≈ 5.92 µM) and the “MBC P. aeruginosa VA-182/00 (VIM-2)” value [14] was 8 µg/mL (≈ 5.92 µM). The “MIC P. aeruginosa VA-182/00 (VIM-2)” value [14] was 8 µg/mL (≈ 5.92 µM), the “MBC P. aeruginosa VR-143/97 (VIM-1)” value [15] was 8 µg/mL (≈ 5.92 µM) and the “MIC P. aeruginosa VR-143/97 (VIM-1)” value [15] was 8 µg/mL (≈ 5.92 µM). The “MBC S. aureus ATCC 43300 (MRSA)” value [16] was 8 µg/mL (≈ 5.92 µM), the “MIC S. aureus ATCC 43300 (MRSA)” value [16] was 4 µg/mL (≈ 2.96 µM) and the “Hemolytic activity (in words)” value [17] was “non-hemolytic”.
